Measurements as given in ChEMBL document CHEMBL1201862, “PubChem BioAssay data set” (2004).
The source made the active and inactive calls.

How the values were obtained:
[1] = molecular target: Induced myeloid leukemia cell differentiation protein Mcl-1 (Homo sapiens, UniProt Q07820); format: functional
Beta-lactamase [2] = molecular target: Beta-lactamase (Salmonella choleraesuis (strain SC-B67), UniProt Q5J463); test: Epi-absorbance-based counterscreen for selective VIM-2 inhibitors: dose response biochemical high throughput screening assay to identify inhibitors of TEM-1 serine-beta-lactamase.
Chain of Beta-lactamase (Salmonella choleraesuis (strain SC-B67), UniProt Q5J463) (Q5J463 whole entry): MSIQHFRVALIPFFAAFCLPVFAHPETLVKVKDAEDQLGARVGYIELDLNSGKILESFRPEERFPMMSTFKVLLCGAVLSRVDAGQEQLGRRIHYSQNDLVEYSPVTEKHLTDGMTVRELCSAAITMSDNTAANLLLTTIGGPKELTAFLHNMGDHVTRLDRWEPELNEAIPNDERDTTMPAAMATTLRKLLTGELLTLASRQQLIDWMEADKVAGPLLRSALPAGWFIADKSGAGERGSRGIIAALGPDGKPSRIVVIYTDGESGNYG

Beta-lactamase [3] = molecular target: T1, Beta-lactamase (Pseudomonas aeruginosa, UniProt Q79MP6); test: inhibition of IMP-1 beta-lactamase activity – biochemical, epi-absorbance, selectivity assay for VIM-2 inhibitor project, dose response (AID 1920)
T1 sequence (Q79MP6 whole entry): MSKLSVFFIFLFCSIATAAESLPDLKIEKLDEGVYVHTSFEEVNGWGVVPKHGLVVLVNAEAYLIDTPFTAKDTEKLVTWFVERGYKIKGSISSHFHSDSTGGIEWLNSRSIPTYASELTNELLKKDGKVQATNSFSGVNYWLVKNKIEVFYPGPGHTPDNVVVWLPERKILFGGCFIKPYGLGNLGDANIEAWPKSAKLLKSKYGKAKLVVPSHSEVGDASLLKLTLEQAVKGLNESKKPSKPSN

Beta-lactamase [4] = molecular target: T1, Beta-lactamase; test: […] counterscreen for selective VIM-2 inhibitors: dose response biochemical high throughput screening assay to identify inhibitors of IMP-1 metallo-beta-lactamase.
[5] = molecular target: Nuclear receptor subfamily 5 group A member 2 (Homo sapiens, UniProt O00482); format: functional, cell-based;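 also: HEK293T cells transfected with LRH-1 and a StAR promoter luciferase reporter; potency for inhibitors that lower LRH-1 driven reporter light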
Chain of Nuclear receptor subfamily 5 group A member 2 (O00482 whole entry): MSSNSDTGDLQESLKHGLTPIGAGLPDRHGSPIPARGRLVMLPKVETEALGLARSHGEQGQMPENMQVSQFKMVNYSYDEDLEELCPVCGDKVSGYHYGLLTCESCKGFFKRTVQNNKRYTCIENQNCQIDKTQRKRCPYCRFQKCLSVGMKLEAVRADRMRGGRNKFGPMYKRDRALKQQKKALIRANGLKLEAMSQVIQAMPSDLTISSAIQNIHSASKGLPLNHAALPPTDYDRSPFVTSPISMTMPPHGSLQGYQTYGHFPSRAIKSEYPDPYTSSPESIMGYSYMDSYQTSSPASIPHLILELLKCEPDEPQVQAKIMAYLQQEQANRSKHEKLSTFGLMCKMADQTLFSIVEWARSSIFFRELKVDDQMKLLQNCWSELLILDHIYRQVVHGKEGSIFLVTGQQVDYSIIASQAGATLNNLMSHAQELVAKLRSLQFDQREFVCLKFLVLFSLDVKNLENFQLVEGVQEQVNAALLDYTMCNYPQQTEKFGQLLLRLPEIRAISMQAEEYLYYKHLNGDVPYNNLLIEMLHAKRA

Steroidogenic factor 1 = Steroidogenic factor 1 (Homo sapiens, UniProt Q13285); test: Counterscreen for inverse agonists of the liver receptor homolog-1 (LRH-1; NR5A2): Luminescence-based cell-based high throughput dose response assay to identify inverse agonists of the Steroidogenic Factor 1 Nuclear Receptor (SF1; NR5A1).; format: functional
Chain of Steroidogenic factor 1 (Q13285 whole entry): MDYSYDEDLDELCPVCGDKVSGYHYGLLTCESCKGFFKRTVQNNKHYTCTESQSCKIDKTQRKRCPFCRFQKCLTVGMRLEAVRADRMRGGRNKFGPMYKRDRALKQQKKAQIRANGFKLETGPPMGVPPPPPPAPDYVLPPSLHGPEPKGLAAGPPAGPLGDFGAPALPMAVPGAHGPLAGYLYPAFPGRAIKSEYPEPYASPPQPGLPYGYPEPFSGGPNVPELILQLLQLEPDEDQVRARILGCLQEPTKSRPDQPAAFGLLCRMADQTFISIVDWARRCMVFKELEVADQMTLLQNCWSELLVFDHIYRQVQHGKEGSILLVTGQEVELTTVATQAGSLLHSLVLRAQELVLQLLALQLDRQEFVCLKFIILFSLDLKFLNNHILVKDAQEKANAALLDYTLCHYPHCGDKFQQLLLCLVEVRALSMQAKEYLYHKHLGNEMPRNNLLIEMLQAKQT

[6] = nonselective StAR promoter luciferase inhibitors – cell-based, luminescence, luciferase reporter, counter-screen for LRH-1 inverse agonist project, dose response (AID 651969); format: functional
[7] = molecular target: T2, Endoribonuclease toxin MazF (Escherichia coli K-12, UniProt P0AE70); test: activation of MazEF endoribonuclease cleavage – biochemical, fluorescence, single-stranded RNA substrate, uHTS hits, dose response (AID 588481); format: functional
T2 sequence (P0AE70 whole entry): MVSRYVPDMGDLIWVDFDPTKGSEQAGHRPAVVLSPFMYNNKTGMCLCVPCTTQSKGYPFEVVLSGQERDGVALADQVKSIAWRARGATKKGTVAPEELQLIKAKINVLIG

[8] = molecular target: T2, Endoribonuclease toxin MazF; test: substrate-only fluorescence increase artefacts – biochemical, single-stranded RNase substrate, counter-screen for MazEF activator project, dose response (AID 588502); format: functional
[9] = HEK-293T viability loss after treatment – luminescence, T-cell screen hits, cytotoxicity control for TCR NF-kB inhibitor project, dose response (AID 489026); format: functional, cell-based;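 also: cells exposed to compound about 14 hours before the viability readout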
[10] = off-target signal loss in HeLa-CEM21 co-culture – HeLa F-luc CTL cells, cherry-picked, counter-screen for HIV-1 Env fusion inhibitor project, dose response (AID 652040); format: functional, cell-based;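 also: potency for signal decrease marking cytotoxic or nonspecific inhibition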
[11] = molecular target: T3, Carboxy-terminal domain RNA polymerase II polypeptide A small phosphatase 1 (Homo sapiens, UniProt Q9GZU7); test: CTDSP1 inhibitors, concentration-response, biochemical, absorbance readout, ultra-high-throughput screen actives (AID 540297); format: functional
T3 sequence (Q9GZU7 whole entry): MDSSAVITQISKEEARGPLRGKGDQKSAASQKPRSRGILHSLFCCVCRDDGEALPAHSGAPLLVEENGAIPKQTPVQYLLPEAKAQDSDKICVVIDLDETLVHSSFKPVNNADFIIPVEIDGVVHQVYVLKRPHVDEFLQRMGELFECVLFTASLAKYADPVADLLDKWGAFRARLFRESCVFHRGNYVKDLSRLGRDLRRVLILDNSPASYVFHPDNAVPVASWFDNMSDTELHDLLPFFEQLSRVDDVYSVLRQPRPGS

[12] = intracellular Trypanosoma cruzi inhibitors in host cells – cell-based, plate reader, cherry-pick samples, set 3, dose response (AID 651818); format: functional;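 also: compounds incubated with infected cells for about four days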
[13] = growth inhibition of yeast DHODH-expressing 3D7 parasites – SYBR Green, dry powder samples, dose response (AID 1159570); format: functional, cell-based;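 also: parasite growth measured after 72 hours of compound exposure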
[14] = toxicity to human HepG2 hepatoma cells – cell-based, plate reader, dry powder samples, cytotoxicity control, dose response (AID 1159569); format: functional;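 also: inhibitor potency with signal falling toward the positive control level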
[15] = P. falciparum Dd2 growth inhibitors, dose response, SYBR Green, cherry-picked samples (AID 1159567); format: functional, cell-based
[16] = Dd2 malaria parasite growth inhibition potency – SYBR Green, dry powder samples, dose response (AID 1159566); format: functional, cell-based;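 also: potency for growth inhibition with lower SYBR green DNA signal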
[17] = growth inhibition of PfATP4-mutant resistant parasites – NITD609-resistant line, SYBR Green, dry powder, dose response (AID 1159571); format: functional, cell-based;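 also: parasites synchronized at ring stage by sorbitol before testing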

Chain of Induced myeloid leukemia cell differentiation protein Mcl-1 (Q07820 whole entry): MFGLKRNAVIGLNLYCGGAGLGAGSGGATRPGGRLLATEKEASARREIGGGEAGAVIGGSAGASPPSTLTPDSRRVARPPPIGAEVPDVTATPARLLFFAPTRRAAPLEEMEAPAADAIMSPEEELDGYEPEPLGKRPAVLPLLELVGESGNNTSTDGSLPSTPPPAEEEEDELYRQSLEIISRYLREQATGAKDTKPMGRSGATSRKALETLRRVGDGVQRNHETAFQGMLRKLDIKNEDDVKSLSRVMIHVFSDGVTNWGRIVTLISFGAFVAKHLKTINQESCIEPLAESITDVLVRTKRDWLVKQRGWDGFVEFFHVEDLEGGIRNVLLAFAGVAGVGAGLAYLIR

SMILES: CCC1(C(=O)OC)CCc2c(cc(OC)c3ccccc23)C1=O (stereo not given)
- IC50 [1]: > 54 µM (not active)

SMILES: Cn1c(-c2sccc2OCc2ccc(Cl)cc2Cl)n[nH]c1=S
- IC50 (Beta-lactamase [2]): > 59.6 µM (inactive)
- IC50 (Beta-lactamase [3]): > 59.6 µM (inactive)
- IC50 (Beta-lactamase [4]): > 59.6 µM (inactive)

SMILES: COc1ccc(NC(=O)CSc2nc(N)c(-c3ccccc3)c(O)n2)cc1
- IC50 [5]: 9.88 µM (active)
- IC50 (Steroidogenic factor 1): 2.36 µM (active)
- IC50 [6]: 35.9 µM (inactive)

SMILES: O=C(CCN1C(=O)/C(=C/c2ccccc2F)SC1=S)NCCCn1ccnc1
- IC50 (Beta-lactamase [2]): > 59.6 µM (inactive)
- IC50 (Beta-lactamase [3]): > 59.6 µM (inactive)
- IC50 (Beta-lactamase [4]): > 19.9 µM (inactive)

SMILES: Cc1cc(-c2ccccc2)c2c3c(c(-c4ccccc4)n2n1)c(=O)n(C)c(=O)n3C
- EC50 [7]: > 99 µM (inactive)
- EC50 [8]: > 99 µM (inactive)

SMILES: COc1ccc(NC(=O)C(=O)NCC2CCCN2S(=O)(=O)c2cccs2)cc1 (stereo not given)
- IC50 [9]: > 80 µM (inactive)
- AC50 [10]: > 70 µM (inactive)

SMILES: O=c1/c(=C/c2ccc(O)c([N+](=O)[O-])c2)sc2nc3ccccc3n12
- IC50 [1]: 3.94 µM (active)
- IC50 [11]: 1.83 µM (active)

SMILES: C[C@@H]1CCCCO[C@@H](CN(C)C(=O)Nc2ccc(C(F)(F)F)cc2)[C@@H](C)CN([C@H](C)CO)C(=O)c2cc(NS(=O)(=O)c3ccc(Cl)cc3)ccc2O1
- AC50 [12]: 3.05 µM (active)

SMILES: C[C@@H]1CN([C@H](C)CO)C(=O)c2cccc(NC(=O)CCCCCC(=O)Nc3ccccc3N)c2O[C@H]1CN(C)CC1CC1
- AC50 [12]: 3.12 µM (active)

SMILES: C[C@@H]1CN([C@@H](C)CO)C(=O)Cc2cc(NC(=O)Nc3ccc(C(F)(F)F)cc3)ccc2O[C@@H]1CN(C)Cc1ccc2c(c1)OCO2
- AC50 [12]: 2.01 µM (active)

SMILES: COc1ccccc1-c1cccc(-c2nc(C(=O)Nc3nccs3)cc3c2[C@H](CCO)N(C(C)=O)C3)c1
- AC50 [13]: 3.93 µM (active)
- AC50 [14]: 66.8 µM (active)
- AC50 [15]: 2.15 µM (active)
- AC50 [16]: 2.08 µM (active)
- AC50 [17]: 1.96 µM (active)

SMILES: C[C@H](CO)N1C[C@H](C)[C@H](CN(C)Cc2ccc(C(F)(F)F)cc2)Oc2ccc(NC(=O)Nc3ccc(F)cc3)cc2CC1=O
- AC50 [12]: 2.19 µM (active)

SMILES: O=C(c1cccc(F)c1)N1CC(=O)N2[C@H](CO)[C@H](c3ccc(-c4cccnc4)cc3)[C@H]2C1
- AC50 [13]: 0.198 µM (active)
- AC50 [14]: > 100 µM (inactive)
- AC50 [15]: 0.326 µM (active)
- AC50 [16]: 0.133 µM (active)
- AC50 [17]: 0.186 µM (active)

SMILES: O=C(Nc1ccc(C(F)(F)F)cc1)N1[C@@H]2CNC[C@H]1[C@H]2c1ccc(/C=C/c2ccccc2)cc1
- AC50 [13]: 1.76 µM (active)
- AC50 [14]: 66.2 µM (active)
- AC50 [15]: 2.46 µM (active)
- AC50 [16]: 1.4 µM (active)
- AC50 [17]: 1.52 µM (active)
